Data set [1] concerns A549. Briefly: Induction of apoptosis in human A549 cells assessed as early apoptotic cells level at 2 uM by AnnexinV-FITC and propidium iodide staining based flow cytometry (reference value: 5.08%). In kind it is functional. For orientation: In flow cytometry, cells or beads pass a laser one at a time.
Data set [2] deals with Matrix metalloproteinase-9 (Homo sapiens, UniProt P14780). Briefly: Inhibition of APMA-activated human recombinant MMP9 incubated for 5 mins using 4-nitrophenylacetate substrate by esterase assay.
For data set [3], the system named is A549. Nature of the data set: Induction of apoptosis in human A549 cells assessed as late apoptotic cells level at 16 uM by AnnexinV-FITC and propidium iodide staining based flow cytometry (reference value: 8.81%). In kind it is functional.
Data set [4] has as its system A549. Nature of the data set: Induction of apoptosis in human A549 cells assessed as necrotic cells level at 4 uM by AnnexinV-FITC and propidium iodide staining based flow cytometry (reference value: 0.964%). The format is functional.
Data set [5] relates to A549. Briefly: Induction of apoptosis in human A549 cells assessed as viable cells at 16 uM by AnnexinV-FITC and propidium iodide staining based flow cytometry (reference value: 85.3%). The format is functional. The conditions noted are these: read-out: Activity.
Data set [6] has as its system A549. Briefly: cells. Particulars: Homo sapiens, A549, 48 h.
Data set [7] concerns A549. Briefly: Induction of apoptosis in human A549 cells assessed as viable cells at 4 uM by AnnexinV-FITC and propidium iodide staining based flow cytometry (reference value: 85.3%). In kind it is functional. Particulars: read-out: Activity.
The subject of data set [8] is A549. Nature of the data set: Induction of apoptosis in human A549 cells assessed as late apoptotic cells level at 2 uM by AnnexinV-FITC and propidium iodide staining based flow cytometry (reference value: 8.81%). The format is functional.
Data set [9] deals with HepG2. Nature of the data set: Antiproliferative activity against human HepG2 cells incubated for 48 hrs by MTT assay. In kind it is functional, cell-based. Particulars: HepG2, 48 h. For orientation: Tetrazolium assays rely on reduction of a dye to a coloured formazan, in cell work by metabolically active cells.
Data set [10] relates to A549. Nature of the data set: Induction of apoptosis in human A549 cells assessed as viable cells at 2 uM by AnnexinV-FITC and propidium iodide staining based flow cytometry (reference value: 85.3%). The format is functional. Particulars: read-out: Activity.
Data set [11] relates to A549. Briefly: Induction of apoptosis in human A549 cells assessed as necrotic cells level at 16 uM by AnnexinV-FITC and propidium iodide staining based flow cytometry (reference value: 0.964%). In kind it is functional.
Data set [12] has as its system HeLa. Nature of the data set: Antiproliferative activity against human HeLa cells incubated for 48 hrs by MTT assay. In kind it is functional, cell-based.
In data set [13] the test system is A549. Nature of the data set: Induction of apoptosis in human A549 cells assessed as early apoptotic cells level at 16 uM by AnnexinV-FITC and propidium iodide staining based flow cytometry (reference value: 5.08%). In kind it is functional.
In data set [14] the target is 72 kDa type IV collagenase (Homo sapiens, UniProt P08253). Nature of the data set: Inhibition of APMA-activated human recombinant MMP2 incubated for 5 mins using 4-nitrophenylacetate substrate by esterase assay. Particulars: read-out: IC50.
Data set [15] can be described thus: Cytotoxicity against HEK293T cells incubated for 48 hrs by MTT assay. The conditions noted are these: human. In kind it is cell-based, HEK-293T.
The test system of data set [16] is A549. Briefly: Induction of apoptosis in human A549 cells assessed as early apoptotic cells level at 4 uM by AnnexinV-FITC and propidium iodide staining based flow cytometry (reference value: 5.08%). In kind it is functional.
The subject of data set [17] is MCF7. Briefly: Antiproliferative activity against human MCF7 cells incubated for 48 hrs by MTT assay. The conditions noted are these: MCF7, 48 h. The format is functional, cell-based.
For data set [18], the system named is A549. Nature of the data set: Induction of apoptosis in human A549 cells by AnnexinV-FITC and propidium iodide staining based flow cytometry. The format is functional, cell-based.
In data set [19] the test system is A549. Nature of the data set: Induction of apoptosis in human A549 cells assessed as late apoptotic cells level at 4 uM by AnnexinV-FITC and propidium iodide staining based flow cytometry (reference value: 8.81%). The format is functional.
The test system of data set [20] is A549. Briefly: Induction of apoptosis in human A549 cells assessed as necrotic cells level at 2 uM by AnnexinV-FITC and propidium iodide staining based flow cytometry (reference value: 0.964%). The format is functional.

As usually defined, the IC50 is the concentration at which inhibition is half-maximal. Broadly, the CC50 is the concentration giving 50% cytotoxicity. High values mean better tolerance by the cells, low ones harm at low concentration.

Sequence of 72 kDa type IV collagenase (P08253 whole entry): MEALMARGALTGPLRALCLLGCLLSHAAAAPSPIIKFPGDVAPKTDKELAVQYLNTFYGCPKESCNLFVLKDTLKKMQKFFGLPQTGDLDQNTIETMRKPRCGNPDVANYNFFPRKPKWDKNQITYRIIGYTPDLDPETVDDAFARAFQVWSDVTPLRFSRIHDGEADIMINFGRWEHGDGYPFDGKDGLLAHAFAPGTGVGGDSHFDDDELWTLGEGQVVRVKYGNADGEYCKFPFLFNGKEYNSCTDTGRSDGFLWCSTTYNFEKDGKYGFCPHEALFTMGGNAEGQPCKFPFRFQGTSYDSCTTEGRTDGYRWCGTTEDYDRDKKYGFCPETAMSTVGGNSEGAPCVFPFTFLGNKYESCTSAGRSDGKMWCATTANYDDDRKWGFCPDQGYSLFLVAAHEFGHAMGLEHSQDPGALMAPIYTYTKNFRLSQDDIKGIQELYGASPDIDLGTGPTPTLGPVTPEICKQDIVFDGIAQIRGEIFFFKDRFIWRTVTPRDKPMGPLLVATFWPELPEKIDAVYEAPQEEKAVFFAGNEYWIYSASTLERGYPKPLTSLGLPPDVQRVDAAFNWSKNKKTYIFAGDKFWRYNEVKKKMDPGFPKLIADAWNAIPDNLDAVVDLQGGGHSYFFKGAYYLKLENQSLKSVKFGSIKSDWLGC
Sequence of Matrix metalloproteinase-9 (P14780 whole entry): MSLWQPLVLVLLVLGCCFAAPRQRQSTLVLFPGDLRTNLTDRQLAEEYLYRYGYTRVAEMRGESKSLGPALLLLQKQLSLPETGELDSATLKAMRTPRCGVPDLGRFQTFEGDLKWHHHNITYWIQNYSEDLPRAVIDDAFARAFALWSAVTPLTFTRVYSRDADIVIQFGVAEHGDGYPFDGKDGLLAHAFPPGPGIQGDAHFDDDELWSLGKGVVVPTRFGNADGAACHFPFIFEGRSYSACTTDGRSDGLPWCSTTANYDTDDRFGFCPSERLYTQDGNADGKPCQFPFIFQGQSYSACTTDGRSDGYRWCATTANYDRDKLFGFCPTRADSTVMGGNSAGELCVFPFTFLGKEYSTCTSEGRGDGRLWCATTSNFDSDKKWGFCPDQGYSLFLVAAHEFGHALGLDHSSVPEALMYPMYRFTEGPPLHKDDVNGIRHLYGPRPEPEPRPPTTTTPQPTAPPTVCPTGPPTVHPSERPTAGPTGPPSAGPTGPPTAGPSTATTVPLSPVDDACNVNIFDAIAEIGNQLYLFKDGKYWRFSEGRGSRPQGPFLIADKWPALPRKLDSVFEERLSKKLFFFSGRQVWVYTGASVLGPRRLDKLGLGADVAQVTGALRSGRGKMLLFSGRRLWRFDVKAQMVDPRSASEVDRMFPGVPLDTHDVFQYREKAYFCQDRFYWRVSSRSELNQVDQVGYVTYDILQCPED

For the compound `Cc1ccc(C2=NN(c3ccc(S(N)(=O)=O)cc3)C(c3cccc4ccccc34)C2)c(C)c1` (stereo not given), the Activity in data set [1] is recorded as 5.91%; in [3], 16.9%; in data set [4], 1.14%; in data set [8] it was 10.2%; in data set [11] it was 0.868%; in data set [13], 3.88%. In addition, the Activity in [16] was 4.84%; in data set [18], “Dose-dependent effect”; in [19] it was 12.9%; in data set [20], 1.1%. Also, the IC50 came to 1.87 µM in data set [2]; 1.9 µM in data set [6]; 6.99 µM in [9]; 12.1 µM in data set [12]; 0.21 µM in [14]; 18.1 µM in [17]. Further, the viability at 16 µM in data set [5] was determined as 78.3%. In addition, the viability at 4 µM in data set [7] was 81.1%. For the same compound, the viability at 2 µM in [10] came out at 82.8%. In addition, in data set [15], it took 52.5 µM to reach half-maximal cytotoxicity (CC50 at 48 h).
